The target in the first test is T1, human GPBAR1 receptor (Homo sapiens, UniProt Q8TDU6).
T1 construct: expressed in transfected cells
T1 sequence (Q8TDU6 1-330): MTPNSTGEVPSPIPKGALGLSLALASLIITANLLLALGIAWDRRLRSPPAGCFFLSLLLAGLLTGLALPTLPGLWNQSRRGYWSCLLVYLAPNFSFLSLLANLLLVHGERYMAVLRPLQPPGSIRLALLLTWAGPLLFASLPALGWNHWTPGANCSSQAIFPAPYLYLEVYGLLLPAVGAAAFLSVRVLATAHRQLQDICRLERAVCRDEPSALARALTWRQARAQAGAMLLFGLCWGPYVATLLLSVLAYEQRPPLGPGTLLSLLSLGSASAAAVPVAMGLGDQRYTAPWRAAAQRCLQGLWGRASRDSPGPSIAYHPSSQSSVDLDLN
Briefly: functional cAMP assay in CHO-dhfr(minus) cells expressing human GPBAR1 receptors. It counts as cell-based. Conditions: functional cAMP assay, 30 min at 30° C., read-out: human EC50. Summed up: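 Agonist cAMP read-out: stable GPBAR1 CHO-dhfr− clone, 30 min compound exposure at 30° C following 30 min IBMX (1 mM) preincubation in Krebs Ringer bicarbonate. Time-resolved energy-transfer detection gives EC50; parental CHO cells serve as counter-screen.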
For orientation: cAMP levels reflect the balance of adenylyl cyclase and phosphodiesterase activity.
In general, EC50 refers to the concentration giving half of the maximal effect. Turning to `O/N=C(\CC(O)(c1ccccc1)c1ccccc1)c1ccncc1` [Example 154, (E)-3-Hydroxy-3,3-diphenyl-1-pyridin-4-yl-propan-1-one oxime], the 50% effective concentration (EC50) amounted to 549 nM. On to `O/N=C(\CC(c1ccccc1)c1ccc(Br)cc1)c1ccncc1` (stereo not shown) [Example 5, (E)-3-(4-Bromo-phenyl)-3-phenyl-1-pyridin-4-yl-propan-1-one oxime], for which the half-maximal effective concentration (EC50) is 19 nM.

Still in this test, the particulars now being: human EC50, functional cAMP assay, 30 min at 30° C.
`Cc1ccccc1C(C/C(=N\O)c1cc(Cl)nc(Cl)c1)c1ccc(Br)cc1` (stereo not shown) [Example 120, (E)-3-(4-Bromo-phenyl)-1-(2,6-dichloro-pyridin-4-yl)-3-o-tolyl-propan-1-one oxime] showed a half-maximal effective concentration (EC50) of 184 nM.

On to `Cc1ccccc1C(C/C(=N\O)c1ccc(=O)n(C)c1)c1ccc(C(=O)NC2(CO)CC2)cc1` (stereo not shown) [Example 308, (E)-4-(3-(Hydroxyimino)-3-(1-methyl-6-oxo-1,6-dihydropyridin-3-yl)-1-o-tolylpropyl)-N-(1-(hydroxymethyl)cyclopropyl)benzamide], for which the response was half-maximal at 592 nM (EC50). Turning to `CCn1cc(/C(CC(c2ccc(Br)cc2)c2ccccc2C)=N/O)ccc1=O` (stereo not shown) [Example 164, 5-{3-(4-Bromo-phenyl)-1-[(E)-hydroxyimino]-3-o-tolyl-propyl}-1-ethyl-1H-pyridin-2-one], a half-maximal response (EC50) required 4 nM. On the same count and under the same terms, to `Cc1cc(/C(C[C@H](c2ccc([C@H]3CC[C@H](C(=O)O)CC3)cc2)c2ccc(Cl)cc2C)=N/O)ccn1` [Example 504, Trans-4-(4-((R,E)-1-(4-Chloro-2-methylphenyl)-3-(hydroxyimino)-3-(2-methylpyridin-4-yl)propyl)phenyl)cyclohexanecarboxylic acid] belongs 28 nM; to `CCS(=O)(=O)c1ccc(-c2ccc(C(C/C(=N\O)c3ccncc3)c3ccccc3)cc2)cc1` (stereo not shown) [Example 26, (E)-3-(4′-Ethanesulfonyl-biphenyl-4-yl)-3-phenyl-1-pyridin-4-yl-propan-1-one oxime], 108 nM. On to `Cc1ccccc1[C@@H](C/C(=N\O)c1ccc(=O)n(C)c1)c1ccc(C2CCC(C(=O)O)CC2)cc1` (stereo partly drawn) [Example 487, (S,E)-4-(4-(3-(hydroxyimino)-3-(1-methyl-6-oxo-1,6-dihydropyridin-3-yl)-1-o-tolylpropyl)-phenyl)cyclohexanecarboxylic acid], for which the midpoint of the response, the EC50, lay at 656 nM. On the same count and under the same terms, to `Cc1ccccc1C(C/C(=N\O)c1ccc(=O)n(C)c1)c1ccc(C(=O)N[C@@H](C)CO)cc1` (stereo partly drawn) [Example 302, 4-((E)-3-(Hydroxyimino)-3-(1-methyl-6-oxo-1,6-dihydropyridin-3-yl)-1-o-tolylpropyl)-N—((S)-1-hydroxypropan-2-yl)benzamide] belongs 320 nM; to `COC(=O)CNC(=O)c1ccc(-c2ccc(C(C/C(=N\O)c3ccc(=O)n(C)c3)c3ccc(Cl)cc3C)cc2)cc1` (single isomer, unassigned; (-)) [Example 253, (−)-({4′-[1-(4-Chloro-2-methyl-phenyl)-3-[(E)-hydroxyimino]-3-(1-methyl-6-oxo-1,6-dihydro-pyridin-3-yl)-propyl]-biphenyl-4-carbonyl}-amino)-acetic acid methyl ester], 140 nM; to `Cc1ccccc1C(CC(=NO)c1ccncc1)c1ccc(N2CCCCC2)cc1` (racemic) [Example 40, 3-(4-Piperidin-1-yl-phenyl)-1-pyridin-4-yl-3-o-tolyl-propan-1-one oxime], 34 nM. On the same count and under the same terms, for `Cn1cc(/C(C[C@@H](c2ccc(-c3ccc(C(=O)O)c(F)c3)cc2)c2ccc(Cl)cc2F)=N/O)ccc1=O` (single isomer, unassigned) [Example 464, 4′-[(+)-1-(4-Chloro-2-fluoro-phenyl)-3-[(E)-hydroxyimino]-3-(1-methyl-6-oxo-1,6-dihydro-pyridin-3-yl)-propyl]-3-fluoro-biphenyl-4-carboxylic acid] the value was 152 nM; for `Cc1cc(C(CC(c2ccc(-c3ccc(F)c(C(=O)O)c3)cc2)c2ccccc2C)=NO)ccn1` (racemic) [Example 113, 4-Fluoro-4′-[3-[hydroxyimino]-3-(2-methyl-pyridin-4-yl)-1-o-tolyl-propyl]-biphenyl-3-carboxylic acid], 215 nM.

Compound `Cc1cc(C(C[C@@H](c2ccc(-c3ccc(C(=O)N[C@H](C)c4ccccc4)cc3)cc2)c2ccccc2C)=NO)ccn1` (racemic) [Example 97, 4′-[(S)-3-[Hydroxyimino]-3-(2-methyl-pyridin-4-yl)-1-o-tolyl-propyl]-biphenyl-4-carboxylic acid ((R)-1-phenyl-ethyl)-amide] yielded a half-maximal effective concentration (EC50) of 177 nM.

With `O/N=C(\CC(c1ccccc1)c1ccc(C2CC2)cc1)c1ccncc1` (stereo not shown) [Example 16, (E)-3-(4-Cyclopropyl-phenyl)-3-phenyl-1-pyridin-4-yl-propan-1-one oxime], the concentration for a half-maximal effect (EC50) turned out to be 178 nM. In turn, `Cc1cc(C)cc(C(CC(=NO)c2ccncc2)c2ccc(N(C)C)cc2)c1` (racemic) [Example 18, 3-(4-Dimethylamino-phenyl)-3-(3,5-dimethyl-phenyl)-1-pyridin-4-yl-propan-1-one oxime] came in with a 50% effective concentration (EC50) of 661 nM.

With `Cn1cc(/C(CC(c2ccc(C(=O)NC3COC3)c(F)c2)c2ccccc2Cl)=N/O)ccc1=O` (stereo not shown) [Example 220, (E)-4-(1-(2-Chlorophenyl)-3-(hydroxyimino)-3-(1-methyl-6-oxo-1,6-dihydropyridin-3-yl)propyl)-2-fluoro-N-(oxetan-3-yl)benzamide], the EC50 came to 680 nM. Take `Cc1cc(/C(CC(c2cccc(S(C)(=O)=O)c2)c2ccccc2C)=N/O)ccn1` (stereo not shown) [Example 391, (E)-1-(2-methylpyridin-4-yl)-3-(3-(methylsulfonyl)phenyl)-3-o-tolylpropan-1-one oxime]: the EC50 worked out at 122 nM. `Cc1ccccc1C(Cc1ccc(Br)cc1)/C(=N/O)c1ccncc1` (stereo not shown) [Example 43, (Z)-3-(4-Bromo-phenyl)-1-pyridin-4-yl-2-o-tolyl-propan-1-one oxime]: the EC50 was found to be 847 nM.

`Cc1cc(F)ccc1[C@H](C/C(=N\O)c1ccc(=O)n(C)c1)c1ccc(Br)cc1` (single isomer, unassigned) [Example 404, (−)-5-{3-(4-Bromo-phenyl)-3-(4-fluoro-2-methyl-phenyl)-1-[(E)-hydroxyimino]-propyl}-1-methyl-1H-pyridin-2-one] gave a 50% effective concentration (EC50) of 5 nM. Same read-out and setting: for `Cc1ccccc1C(C/C(=N\O)c1ccc(=O)n(C)c1)c1ccc(C(=O)NC[C@H](C)O)cc1` (stereo partly drawn) [Example 247, 4-((E)-3-(Hydroxyimino)-3-(1-methyl-6-oxo-1,6-dihydropyridin-3-yl)-1-o-tolylpropyl)-N-((S)-2-hydroxypropyl)benzamide] the value was 220 nM. `Cc1ccccc1[C@@H](C/C(=N\O)c1cnc(=O)n(C)c1)c1ccc(S(C)(=O)=O)cc1` [Example 502, (S,E)-5-(1-(Hydroxyimino)-3-(4-(methylsulfonyl)phenyl)-3-o-tolylpropyl)-1-methyl-pyrimidin-2(1H)-one] yielded an EC50 of 477 nM.

Take `Cc1cc(/C(CC(c2ccc(N3CCN(S(C)(=O)=O)CC3)cc2)c2ccccc2C(F)(F)F)=N/O)ccn1` (stereo not shown) [Example 137, (E)-3-[4-(4-Methanesulfonyl-piperazin-1-yl)-phenyl]-1-(2-methyl-pyridin-4-yl)-3-(2-trifluoromethyl-phenyl)-propan-1-one oxime]: a half-maximal response (EC50) required 38 nM. Same read-out and setting: for `Cc1cc(Cl)ccc1C(C/C(=N\O)c1ccc(=O)n(C)c1)c1ccc(Br)cc1` (stereo not shown) [Example 226, 5-{3-(4-Bromo-phenyl)-3-(4-chloro-2-methyl-phenyl)-1-[(E)-hydroxyimino]-propyl}-1-methyl-1H-pyridin-2-one] the value was 38 nM. The compound `Cc1cc(C(CC(c2ccc(-c3ccc(C(=O)NCCC(=O)O)cc3)cc2)c2ccccc2C)=NO)ccn1` (racemic) [Example 89, 3-({4′-[3-[Hydroxyimino]-3-(2-methyl-pyridin-4-yl)-1-o-tolyl-propyl]-biphenyl-4-carbonyl}-amino)-propionic acid] had an EC50 of 7 nM. The same measure, in the same setting: to `Cc1cc(C(CC(c2cccc(Br)c2)c2ccccc2C)=NO)ccn1` (racemic) [Example 98, 3-(3-Bromo-phenyl)-1-(2-methyl-pyridin-4-yl)-3-o-tolyl-propan-1-one oxime] belongs 146 nM; to `Cn1cc(/C(CC(c2ccc(-c3ccc(C(=O)O)cc3)cc2)c2ccccc2F)=N/O)ccc1=O` (stereo not shown) [Example 244, (E)-4′-(1-(2-Fluorophenyl)-3-(hydroxyimino)-3-(1-methyl-6-oxo-1,6-dihydropyridin-3-yl)propyl)biphenyl-4-carboxylic acid], 260 nM; to `Cn1cc(/C(CC(c2ccc(S(C)(=O)=O)cc2)c2ccccc2Cl)=N/O)ccc1=O` (stereo not shown) [Example 249, (E)-5-(3-(2-Chlorophenyl)-1-(hydroxyimino)-3-(4-(methylsulfonyl)phenyl)propyl)-1-methylpyridin-2(1H)-one], 30 nM. Same read-out and setting: to `Cc1cc(/C(CC(c2ccc(-c3ccc(C(=O)O)cc3)cc2)c2ccc(Cl)cc2C)=N/O)ccn1` (stereo not shown) [Example 139, (E)-4′-(1-(4-chloro-2-methylphenyl)-3-(hydroxyimino)-3-(2-methylpyridin-4-yl)propyl)biphenyl-4-carboxylic acid] belongs 17 nM; to `Cc1ccccc1C(C/C(=N\O)c1cc(F)cc(F)c1)c1ccc(Br)cc1` (stereo not shown) [Example 53, (E)-3-(4-bromo-phenyl)-1-(3,5-difluoro-phenyl)-3-o-tolyl-propan-1-one oxime], 6760 nM; to `Cn1cc(/C(CC(c2ccccc2Cl)C2CCCC2)=N/O)ccc1=O` (stereo not shown) [Example 197, 5-{3-(2-Chloro-phenyl)-3-cyclopentyl-1-[(E)-hydroxyimino]-propyl}-1-methyl-1H-pyridin-2-one], 12 nM.

The values are drawn from US8765730B2 (Hoffmann-La Roche Inc, priority 2010, dated 2014).
